ChEMBL document CHEMBL5108065 (J Med Chem, 2022)
Calls of active or inactive are those of the source. No cut-off for these calls is given here.

Legend:
Plasmodium falciparum [1] = test: Antimalarial activity against DSM265 resistant Plasmodium falciparum Dd2 harbouring pf-dhodh mutated loci assessed as inhibition of parasite growth pretreated for 48 hrs followed by [3H]-hypoxanthine addition measured after 24 hrs by scintillation counting method; format: functional, organism-based
[2] = Phototoxicity assessed as minimum extinction coefficient of the compound; format: toxicity
[3] = Toxicity in Han Wistar rat assessed as effect on implicit times and latency at 1000 mg/kg, po administered every other day for 7 days by ERG analysis; format: organism-based; conditions: in vivo, 168 h, time 7 day
[4] = AUC in Han Wistar rat at 1000 mg/kg, po administered every other day for 7 days; format: ADME, organism-based; set-up: dose 1000 mg/kg, time 7 day, route po; conditions: in vivo, 168 h
[5] = biological target: Plasmepsin X (Plasmodium falciparum (isolate 3D7)) (UniProt Q8IAS0); conditions: Expi293F GnTI-
Description: Inhibition of Plasmodium falciparum recombinant C-terminal TEV cleavable 8his-tagged PMX by FRET assay

[6] = Cardiotoxicity in anesthetized guinea-pig assessed as QRS widening at 90 nM; format: toxicity, Cavia porcellus; conditions: 0.09 µM
[7] = Toxicity in Han Wistar rat assessed as changes in ophthalmology at 250 to 1000 mg/kg, po administered every other day for 7 days; format: organism-based; conditions: in vivo, 168 h, dose 250-1000 mg/kg, time 7 day
[8] = Volume of distribution at steady state in Cynomolgus monkey blood at 1 mg/kg, iv measured at 2 to 72 hrs by LC-MS/MS analysis; format: ADME, organism-based, Macaca fascicularis; conditions: whole blood, time 2-72 hrs, read-out: Vdss
Plasmodium falciparum [9] = test: Antimalarial activity against Plasmodium falciparum Dd2 harbouring Pf-crt, Pf-mdrl,Pf-dhfr, Pf-dhps mutated loci assessed as inhibition of parasite growth pretreated for 48 hrs followed by [3H]-hypoxanthine addition measured after 24 hrs by scintillation counting method; format: functional, organism-based
Plasmodium berghei [10] = test: Antimalarial activity against luciferase expressing Plasmodium berghei sporozoites infected in naive C57B/6 liver mouse model assessed as decrease in liver infection at 50 mg/kg, po administered twice daily on day 8 by Giemsa staining based microscopic analysis; format: functional, organism-based; conditions: time 8.0 day
HepG2 = test: Cytotoxicity against human HepG2 cells assessed reduction in cell viability; format: toxicity, cell-based
Plasmodium berghei [11] = test: Antimalarial activity against Plasmodium berghei sporozoites infected in naive C57B/6 liver mouse model assessed as decrease in liver infection at 50 mg/kg, po administered twice daily for 1 to 2 days by Giemsa staining based microscopic analysis; format: functional, organism-based; conditions: time 1-2 day

Chain of Plasmepsin X (Plasmodium falciparum (isolate 3D7)) (Q8IAS0 whole entry): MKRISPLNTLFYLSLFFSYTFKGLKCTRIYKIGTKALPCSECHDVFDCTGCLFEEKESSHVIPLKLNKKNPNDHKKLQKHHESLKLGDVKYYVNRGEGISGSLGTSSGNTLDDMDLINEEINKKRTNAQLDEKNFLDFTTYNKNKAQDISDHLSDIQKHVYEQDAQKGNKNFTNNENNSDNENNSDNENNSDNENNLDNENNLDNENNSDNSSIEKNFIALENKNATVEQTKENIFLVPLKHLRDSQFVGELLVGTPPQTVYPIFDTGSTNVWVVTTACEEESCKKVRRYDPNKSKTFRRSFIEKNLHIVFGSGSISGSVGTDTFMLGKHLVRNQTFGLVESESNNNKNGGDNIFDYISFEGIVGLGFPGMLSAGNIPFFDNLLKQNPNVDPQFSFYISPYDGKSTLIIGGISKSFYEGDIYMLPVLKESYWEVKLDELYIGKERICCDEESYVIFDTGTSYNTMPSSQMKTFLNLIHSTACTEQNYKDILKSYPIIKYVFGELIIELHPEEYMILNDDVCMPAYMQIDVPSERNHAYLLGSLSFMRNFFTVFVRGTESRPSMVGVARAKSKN

**Q.** Which results are given for `C[C@H]1C[C@@H](N2C(=N)N[C@](C)(c3cccc(NC(=O)c4cccc(C#N)c4)c3Cl)CC2=O)CCO1`?
**A.** IC50 (Plasmodium falciparum [1]): 22 nM; Activity [2]: 2336 a.u.L/mol.cm; Activity [3]: Non-Toxic; AUC [4]: 2182 µM·h; IC90 [5]: 52 nM; Activity [6]: Non-Toxic; Activity [7]: Non-Toxic; Vd [8]: 3.07 L/kg; IC50 (Plasmodium falciparum [9]): 18 nM

**Q.** With `C[C@H]1C[C@@H](N2C(=N)N[C@](C)(c3cccc(Nc4ccc(C5CC5)nc4)c3Cl)CC2=O)CCO1` as the compound, how does the Activity (Plasmodium berghei [10]) read?
**A.** Active

**Q.** What about the IC50 (HepG2) of the same compound?
**A.** 16000 nM

**Q.** And the Activity (Plasmodium berghei [11])?
**A.** Active
